Assay results: patent US8142821B2, “Xanthohumol-enriched hop extract” (Flazan GmbH & Co. KG, priority 2007, dated 2012)
≈ marks a conversion by molar mass, not a printed value.

How the values were obtained:
[1] = HORAC, hydroxyl radical ORAC; details: among hop components
Description: (§1) [table] […] The SOAC scores are not included in this figure; ORAC values used are the sum of lipophilic and hydrophilic results. For each assay category, scaling was made logarithmic so that the plot on the chart resembles the associated rating. […] The larger the spatial area, the higher the overall antioxidative capacity. […] Both hydrophilic and lipophilic oxygen radical absorbance capacity (ORAC) assays were carried out at Brunswick Laboratory (Wareham, Mass.) based on the modified ORACfl method reported by Ou et al. (2001 J. Agric. Food Chem. 49: 4619-4626, 2002 J. Agr. Food Chem. 50: 3122-3128). Trolox, a water-soluble vitamin E analog, was used as the calibration standard. The data are expressed as mmole of Trolox equivalents per gram (mmol TE/g). […] Hydroxyl radical ORAC (HOR-AC) is expressed as mmole caffeic acid equivalent per gram (mmol CAE/g). […] The peroxyl nitrite ORAC (NORAC) result is expressed as mmol TE/g. Alpha-tocopherol (vitamin E) was used as the calibration standard, and the singlet oxygen absorbance capacity (SOAC) result is expressed as mmole a-tocopherol equivalent (mmol VtE) per gram (Aubry et al. 1989 J. Org. Chem. 54: 726-728). […] Radical-scavenging activity was measured by the change in absorbance at 517 nm with the DPPH result expressed as mmol TE/g. […] The FRAP result is expressed as mmol TE/g (Ou et al. J. Agric. Food Chem. 49: 4619-4626). […]

[2] = FRAP, ferric reducing antioxidative power; details: among hop components
Description: as §1

[3] = ORAC-Total (ORAClipo + ORAChydro); details: among hop components
Description: In the present work, the ORAC value is expressed as the sum of values of both the water-soluble and fat-soluble parts. Green tea catechins (Polyphenon 60) were used as the control with the highest ORAC value among edible plants. Vitamin C and vitamin E were used as controls for water- and fat-soluble molecules, respectively. Both hydrophilic and lipophilic oxygen radical absorbance capacity (ORAC) assays were carried out at Brunswick Laboratory (Wareham, Mass.) based on the modified ORACfl method reported by Ou et al. (2001 J. Agric. Food Chem. 49: 4619-4626, 2002 J. Agr. Food Chem. 50: 3122-3128). Trolox, a water-soluble vitamin E analog, was used as the calibration standard. The data are expressed as mmole of Trolox equivalents per gram (mmol TE/g). […] Hydroxyl radical ORAC (HOR-AC) is expressed as mmole caffeic acid equivalent per gram (mmol CAE/g). […] The peroxyl nitrite ORAC (NORAC) result is expressed as mmol TE/g. Alpha-tocopherol (vitamin E) was used as the calibration standard, and the singlet oxygen absorbance capacity (SOAC) result is expressed as mmole a-tocopherol equivalent (mmol VtE) per gram (Aubry et al. 1989 J. Org. Chem. 54: 726-728). […] Radical-scavenging activity was measured by the change in absorbance at 517 nm with the DPPH result expressed as mmol TE/g. […] The FRAP result is expressed as mmol TE/g (Ou et al. J. Agric. Food Chem. 49: 4619-4626). […]

[4] = test system: S. epidermidis (ATCC 12228); assay: Antimicrobial susceptibility, broth dilution; assay type: cell-based; details: Staphylococcus epidermidis, ATCC12228; lowest concentration required to kill
Description: (§2) The antibacterial effects of seven hops components against five different strains of bacteria involved in primary or secondary skin and soft tissue infections was evaluated, with broth dilution methods. […] Antimicrobial susceptibility testing was performed using a broth dilution method. Gentamicin or ampicillin was used as a control to verify the methodology. A stock solution (20 mg/ml) of the test substance (or vehicle control) was prepared in dimethyl sulfoxide. Serial dilution was done in microwell plates. Reinforced Clostridial Medium was used for P. acnes (ATCC 6919). Three hundreds […] of the test substance was added to the test tube containing P. acnes (10^5 CFU/ml) in 2.7 ml of cultures grown under anaerobic conditions. Mueller-Hinston Broth suitable for culturing S. epidermidis (ATCC 12228), K. rhizophila (formerly M. luteus) (ATCC 9341), and S. aureus (ATCC […]), and Brain Heart Infusion Broth suitable for culturing S. pyogenes (ATCC 14289) were used. A total of […] of the test substance was added to the test tube containing the other microorganisms (10^5 CFU/ml) in 0.9 ml of cultures grown under controlled conditions. […] Samples from those tubes that scored positive was plated onto an agar plate and incubated under controlled conditions.

P. acnes (ATCC 6919) = assay: Antimicrobial susceptibility, broth dilution; assay type: cell-based; details: Cutibacterium acnes, ATCC6919; lowest concentration required to kill
Description: as §2

S. pyogenes (ATCC 14289) = assay: Antimicrobial susceptibility, broth dilution; assay type: cell-based; details: Streptococcus pyogenes, ATCC14289; lowest concentration required to kill
Description: as §2

S. aureus (ATCC 6538P) = assay: Antimicrobial susceptibility, broth dilution; assay type: cell-based; details: Staphylococcus aureus, ATCC6538P; lowest concentration required to kill
Description: as §2

[5] = test system: K. rhizophila (formerly M. luteus) (ATCC 9341); assay: Antimicrobial susceptibility, broth dilution; assay type: cell-based; details: Kocuria rhizophila, ATCC9341; lowest concentration required to kill
Description: as §2

SOD antioxidant assay = details: among hop components

## COc1cc(O)c(CC=C(C)C)c(O)c1C(=O)/C=C/c1ccc(O)cc1 [Xanthohumol (7), Xanthohumol]
[1]
  rank of quenching activity against hydroxyl radical (HORAC), FIG. 2: highest quenching activity
[2]
  rank of quenching activity against ferric ion (FRAP), FIG. 2: highest quenching activity
[3]
  rank of quenching activity against peroxyl radical (ORAC-total), FIG. 2: highest quenching activity
[4]
  MBC: 10 µg/mL (≈ 28.2 µM)
P. acnes (ATCC 6919)
  MBC: 3 µg/mL (≈ 8.46 µM)
S. pyogenes (ATCC 14289)
  MBC: 3 µg/mL (≈ 8.46 µM)
S. aureus (ATCC 6538P)
  MBC: 100 µg/mL (≈ 282 µM)
[5]
  MBC: 10 µg/mL (≈ 28.2 µM)
SOD antioxidant assay
  rank of quenching activity against superoxide (SOD), FIG. 2: highest quenching activity
